Reference: patent US20260007613A1, “LONG-ACTING LOW-TOXICITY NOVEL CATIONIC LIPID COMPOUNDS AND COMPOSITION THEREOF” (BEIJING YOUCAREKECHUANG PHARMACEUTICAL TECHNOLOGY CO., LTD., priority 2023, published 2026)
Several values for one entry are separate records, joined by “and”; a condition that tells them apart may be missing. Identical values can stand only once.

Key:
[1] = test system: 293T cells; test: Fluorescent detection of Fluc-mRNA (cell transfection efficiency of LNP formulations); assay type: cell-based
In short: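 293T cells were seeded at 10,000/well and cultured overnight, then given LNP carrying […] Fluc-mRNA (cationic:neutral:structured:polymer-conjugated lipid 49:10:39.5:1.5 molar) for 24 h. Luminescence was developed with […] and imaged on IVIS.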

[2] = test system: female BALB/C mice; test: Live imaging in mice: protein expression of Fluc-mRNA delivered by LNP formulations; assay type: in vivo; conditions: for average radiation intensity, times that of ALC-0315: comparator ALC-0315; for average radiation intensity, times that of HHMA: comparator HHMA; for average radiation intensity, times that of SM-102: comparator SM-102; for expression of mRNA in mice, times that of YK-302: comparator YK-302; for expression amount, times that of YK-321: comparator YK-321; for average radiation intensity, times that of compound 21: comparator compound 21; for average radiation intensity, times that of compound 23: comparator compound 23
In short: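 Female BALB/C mice (4-6 weeks, 17-19 g) received LNP-formulated Fluc-mRNA […] intramuscularly. At 6 h, 24 h, 48 h and 7 d, luciferase substrate given intraperitoneally, and after 5 min average radiance measured by IVIS whole-body imaging.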

[3] = Particle size and polydispersity index (PDI) of lipid nanoparticles by dynamic light scattering; assay type: physicochemical; conditions: LNP formulation prepared from the cationic lipid, 25° C.
Procedure: The particle size and polydispersity index (PDI) were determined by dynamic light scattering using Malvern laser particle size analyzer.
10 μL of the liposome solution was weighed, diluted to 1 mL with RNase-free deionized water, and added to the sample pool. Each sample was measured in triplicate. The measurement conditions were: […] scattering angle, and 25° C.

[4] = test system: 293T cells; test: Cell survival rate determination (CCK-8); assay type: cell-based; conditions: difference of survival rates
In short: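 293T cells plated at 10,000/well (96-well), adhered overnight, then exposed 24 h to Fluc-mRNA LNP (cationic:neutral:structured:PEG-lipid 49:10:39.5:1.5) or Lipofectamine 3000. Viability by CCK-8, 1 h incubation, absorbance at 450 nm.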

[5] = test system: liver; test: Distribution of liposomes in mice: protein expression in the liver (live imaging); assay type: in vivo; conditions: at 6 h
In short: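 Female BALB/C mice (4–6 weeks, 17–19 g) received LNP carrying […] Fluc-mRNA intramuscularly. At 6 h, 24 h, 48 h and 7 d, the luciferase substrate was given intraperitoneally. After 5 min of free movement, average radiance was imaged with IVIS Spectrum.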

CCCCCCC(CCCCCC)CCOC(=O)CCCCCCN(CCCCCCC(=O)OCCC(CCCCCC)CCCCCC)C[C@H](O)CN(CCO)CCO [YK-319]
Relative light unit (RLU) ([1]; LNP formulation of Fluc-mRNA, 96-well plate, 24 hours): 24467760 RLU | Multiples (YK-305) ([1]; RLU of YK-305 / RLU of the lipid of the line): 1.12 | Multiples (YK-310) ([1]; RLU of YK-310 / RLU of the lipid of the line): 1.05 | Multiples (YK-312) ([1]; RLU of YK-312 / RLU of the lipid of the line): 0.82 | Multiples (YK-318) ([1]; RLU of YK-318 / RLU of the lipid of the line, Tables 5, 7, 11): 0.46 | Multiples (YK-319) ([1]; RLU of YK-319 / RLU of the lipid of the line, Tables 5, 7, 11): 1.00 | Ratio relative to SM-102 ([1]; RLU of the lipid / RLU of SM-102, times that of SM-102): 15.25 | cell transfection efficiency, times that of ALC-0315 ([1]; comparator ALC-0315): 12.03 times | cell transfection efficiency, times that of HHMA ([1]; comparator HHMA): 12.20 times | cell transfection efficiency, times that of Lipofectamine 3000 ([1]; comparator Lipofectamine 3000): 20.63 times | cell transfection efficiency, times that of YK-009 ([1]; comparator YK-009): 4.78 times | cell transfection efficiency, times that of YK-301 ([1]; comparator YK-301): 29.04 times | cell transfection efficiency, times that of YK-302 ([1]; comparator YK-302): 880.83 times | cell transfection efficiency, times that of YK-303 ([1]; comparator YK-303): 39.07 times | cell transfection efficiency, times that of YK-304 ([1]; comparator YK-304): ~1100 times and 1182.82 times | cell transfection efficiency, times that of YK-306 ([1]; comparator YK-306): 11.14 times | cell transfection efficiency, times that of YK-307 ([1]; comparator YK-307): 5.37 times | cell transfection efficiency, times that of YK-308 ([1]; comparator YK-308): 2.22 times | cell transfection efficiency, times that of YK-309 ([1]; comparator YK-309): ~190 times and 195.16 times | cell transfection efficiency, times that of YK-311 ([1]; comparator YK-311): 12.46 times | cell transfection efficiency, times that of YK-313 ([1]; comparator YK-313): 28.24 times | cell transfection efficiency, times that of YK-314 ([1]; comparator YK-314): 44.70 times | cell transfection efficiency, times that of YK-315 ([1]; comparator YK-315): 15.42 times | cell transfection efficiency, times that of YK-316 ([1]; comparator YK-316): 5.09 times | cell transfection efficiency, times that of YK-317 ([1]; comparator YK-317): 6.79 times | cell transfection efficiency, times that of YK-320 ([1]; comparator YK-320): 9.05 times | cell transfection efficiency, times that of YK-321 ([1]; comparator YK-321): 17.43 times | cell transfection efficiency, times that of compound 21 ([1]; comparator compound 21): 17.08 times | cell transfection efficiency, times that of compound 23 ([1]; comparator compound 23): 18.04 times | average radiation intensity, times that of ALC-0315 ([2]; 6 h): 9.53 times | average radiation intensity, times that of HHMA ([2]; 6 h): 12.64 times | average radiation intensity, times that of SM-102 ([2]; 6 h): 11.74 times | expression of mRNA in mice, times that of YK-302 ([2]; 6 h): 564.51 times | expression amount, times that of YK-321 ([2]; 6 h): 15.96 times | average radiation intensity, times that of compound 21 ([2]; 6 h): 13.49 times | average radiation intensity, times that of compound 23 ([2]; 6 h): 13.96 times | average radiation intensity ([2]; 6 h after intramuscular injection): 8230500 | average radiation intensity, times that of ALC-0315 ([2]; 24 h): 12.78 times | average radiation intensity, times that of HHMA ([2]; 24 h): 20.29 times | average radiation intensity, times that of SM-102 ([2]; 24 h): 20.20 times | expression of mRNA in mice, times that of YK-302 ([2]; 24 h): 615.26 times | expression amount, times that of YK-321 ([2]; 24 h): 24.04 times | average radiation intensity, times that of compound 21 ([2]; 24 h): 22.16 times | average radiation intensity, times that of compound 23 ([2]; 24 h): 23.28 times | average radiation intensity ([2]; 24 h after intramuscular injection): 2433960 | average radiation intensity, times that of ALC-0315 ([2]; 48 h): 22.30 times | average radiation intensity, times that of HHMA ([2]; 48 h): 27.27 times | average radiation intensity, times that of SM-102 ([2]; 48 h): 27.27 times | expression of mRNA in mice, times that of YK-302 ([2]; 48 h): 866.03 times | expression amount, times that of YK-321 ([2]; 48 h): 24.28 times | average radiation intensity, times that of compound 21 ([2]; 48 h): 28.65 times | average radiation intensity, times that of compound 23 ([2]; 48 h): 26.80 times | average radiation intensity ([2]; 48 h after intramuscular injection): 887680 | average radiation intensity, times that of ALC-0315 ([2]; 7 d): 14.88 times | average radiation intensity, times that of HHMA ([2]; 7 d): 17.86 times | average radiation intensity, times that of SM-102 ([2]; 7 d): 15.84 times | expression of mRNA in mice, times that of YK-302 ([2]; 7 d): 273.07 times | expression amount, times that of YK-321 ([2]; 7 d): 15.92 times | average radiation intensity, times that of compound 21 ([2]; 7 d): 16.27 times | average radiation intensity, times that of compound 23 ([2]; 7 d): 16.80 times | average radiation intensity ([2]; 7 d after intramuscular injection): 104860 | PDI (%) [3]: 11.7% | Particle size (nm) [3]: 200 nm | cell survival rate higher than ALC-0315 ([4]; comparator ALC-0315): 24.18% | cell survival rate higher than HHMA ([4]; comparator HHMA): 8.74% | cell survival rate higher than Lipofectamine 3000 ([4]; comparator Lipofectamine 3000): 50.20% | cell survival rate higher than SM-102 ([4]; comparator SM-102): 5.76% | cell survival rate higher than YK-301 ([4]; comparator YK-301): 22.25% | cell survival rate higher than YK-302 ([4]; comparator YK-302): 58.78% | cell survival rate higher than YK-303 ([4]; comparator YK-303): 11.89% | cell survival rate higher than YK-304 ([4]; comparator YK-304): 41.05% | cell survival rate higher than YK-306 ([4]; comparator YK-306): 33.02% | cell survival rate higher than YK-307 ([4]; comparator YK-307): 14.07% | cell survival rate higher than YK-308 ([4]; comparator YK-308): 4.22% | cell survival rate higher than YK-309 ([4]; comparator YK-309): 43.60% | cell survival rate higher than YK-311 ([4]; comparator YK-311): 5.15% | cell survival rate higher than YK-313 ([4]; comparator YK-313): 6.28% | cell survival rate higher than YK-314 ([4]; comparator YK-314): 7.33% | cell survival rate higher than YK-315 ([4]; comparator YK-315): 3.93% | cell survival rate higher than YK-316 ([4]; comparator YK-316): 4.68% | cell survival rate higher than YK-317 ([4]; comparator YK-317): 16.03% | cell survival rate higher than YK-320 ([4]; comparator YK-320): 4.14% | cell survival rate higher than YK-321 ([4]; comparator YK-321): 2.87% | cell survival rate higher than compound 21 ([4]; comparator compound 21): 5.00% | cell survival rate higher than compound 23 ([4]; comparator compound 23): 3.71% | expression amount in the liver compared with ALC-0315 and SM-102 [5]: reduced | protein expression in the liver ([5]; intramuscular injection): had protein expression in the liver
